Measured values: BindingDB's records for doi:10.1021/jm950807f (University of Minnesota, 1996)

Test: Binding affinity against Delta Opioid receptor in Guinea pig brain membranes

Structure (SMILES): N[C@@]1(C2=N[C@]3(CC[C@@]4(O)[C@H]5Cc6ccc(O)c7c6C4(CCN5CC4CC4)[C@H]3O7)C(=O)N2)CC[C@@]2(O)[C@H]3Cc4ccc(O)c5c4C2(CCN3CC2CC2)[C@H]1O5 [(4S,5'R,13'R,17'S)-2-[(5R,13R,14R,17S)-14-amino-4-(cyclopropylmethyl)-10,17-dihydroxy-12-oxa-4-azapentacyclo[9.6.1.0^{1,13}.0^{5,17}.0^{7,18}]octadeca-7(18),8,10-trien-14-yl]-4'-(cyclopropylmethyl)-10',17'-dihydroxy-3,5-dihydro-12'-oxa-4'-azaspiro[imidazole-4,14'-pentacyclo[9.6.1.0^{1,13}.0^{5,17}.0^{7,18}]octadecane]-7',9',11'(18')-trien-5-one]
- Ki: 1.24 nM

Structure (SMILES): NC1=NC([C@]2(N)CC[C@@]3(O)[C@H]4Cc5ccc(O)c6c5C3(CCN4CC3CC3)[C@H]2O6)=N[C@]12CC[C@@]1(O)[C@H]3Cc4ccc(O)c5c4C1(CCN3CC1CC1)[C@H]2O5 [5-amino-2,4(Bis-4-cyclopropylmethyl-10,17-dihydroxy-(1S,5R,13R,17S)-12-oxa-4-azapentacyclo[9.6.1.01,13.05,17.07,18]octadeca-7(18),8,10-trien-14-one) imidazole]
- Ki: 183 nM
